Data taken from ChEMBL document CHEMBL1201862, “PubChem BioAssay data set” (2004).
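Assay format: 96-well plates, 48-hour exposure. The concentration for 50% growth inhibition is given as GI50.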 Calls of active or inactive are those of the source. No stated cut-off is given here; in the data, active = GI50 up to about 1.1 µM and inactive = higher.

How the values were obtained:
Assay in all cases: growth of human tumour cells (NCI), 48 h
786-0 = tested on: 786-0
A498 = tested on: A498
A549 = tested on: A549
ACHN = tested on: ACHN
BT-549 = tested on: BT-549
CCRF-CEM = tested on: CCRF-CEM
COLO 205 = tested on: COLO 205
DU-145 = tested on: DU-145
HCC 2998 = tested on: HCC 2998
HCT-116 = tested on: HCT-116
HCT-15 = tested on: HCT-15
HL-60 = tested on: HL-60
HOP-62 = tested on: HOP-62
HOP-92 = tested on: HOP-92
HT-29 = tested on: HT-29
Hs-578T = tested on: Hs-578T
IGROV-1 = tested on: IGROV-1
K562 = tested on: K562
LOX IMVI = tested on: LOX IMVI
M14 = tested on: M14
MCF7 = tested on: MCF7
MDA-MB-231 = tested on: MDA-MB-231
MDA-MB-435 = tested on: MDA-MB-435
Malme-3M = tested on: Malme-3M
NCI-H226 = tested on: NCI-H226
NCI-H23 = tested on: NCI-H23
NCI-H460 = tested on: NCI-H460
NCI/ADR-RES = tested on: NCI/ADR-RES
OVCAR-3 = tested on: OVCAR-3
OVCAR-4 = tested on: OVCAR-4
OVCAR-5 = tested on: OVCAR-5
OVCAR-8 = tested on: OVCAR-8
PC-3 = tested on: PC-3
RPMI-8226 = tested on: RPMI-8226
RXF 393 = tested on: RXF 393
SF-268 = tested on: SF-268
SF-539 = tested on: SF-539
SK-MEL-28 = tested on: SK-MEL-28
SK-MEL-2 = tested on: SK-MEL-2
SK-MEL-5 = tested on: SK-MEL-5
SK-OV-3 = tested on: SK-OV-3
SN12C = tested on: SN12C
SNB-19 = tested on: SNB-19
SNB-75 = tested on: SNB-75
SW-620 = tested on: SW-620
T47D = tested on: T47D
TK-10 = tested on: TK-10
U-251 = tested on: U-251
UACC-257 = tested on: UACC-257
UACC-62 = tested on: UACC-62
UO-31 = tested on: UO-31

## CC(SC(=S)N1CCCC1)C(=O)Nc1nnc(-c2ccc(Cl)cc2)o1 (stereo unspecified)
786-0
  GI50: 14.1 µM (inactive)
A498
  GI50: 34 µM (inactive)
A549
  GI50: 31 µM (inactive)
ACHN
  GI50: 33 µM (inactive)
BT-549
  GI50: 39.8 µM (inactive)
CCRF-CEM
  GI50: < 0.01 µM (active)
COLO 205
  GI50: 37.6 µM (inactive)
DU-145
  GI50: 44.2 µM (inactive)
HCC 2998
  GI50: 57.4 µM (inactive)
HCT-116
  GI50: 19.5 µM (inactive)
HCT-15
  GI50: 17 µM
HL-60
  GI50: < 0.01 µM (active)
HOP-62
  GI50: 34.1 µM (inactive)
HOP-92
  GI50: 65.8 µM (inactive)
HT-29
  GI50: 21.8 µM (inactive)
Hs-578T
  GI50: 44.8 µM (inactive)
IGROV-1
  GI50: 32 µM (inactive)
K562
  GI50: 8.85 µM (inactive)
LOX IMVI
  GI50: 18.7 µM (inactive)
M14
  GI50: 15.5 µM (inactive)
MCF7
  GI50: 33.7 µM (inactive)
MDA-MB-231
  GI50: 40 µM (inactive)
MDA-MB-435
  GI50: 36.1 µM (inactive)
Malme-3M
  GI50: 23.8 µM (inactive)
NCI-H226
  GI50: 40.3 µM (inactive)
NCI-H23
  GI50: 39.5 µM (inactive)
NCI-H460
  GI50: 39.4 µM (inactive)
NCI/ADR-RES
  GI50: 22.8 µM (inactive)
OVCAR-3
  GI50: 32.7 µM (inactive)
OVCAR-4
  GI50: 35.5 µM (inactive)
OVCAR-5
  GI50: 33.2 µM (inactive)
OVCAR-8
  GI50: 40.1 µM (inactive)
PC-3
  GI50: 35.6 µM (inactive)
RPMI-8226
  GI50: 14.6 µM (inactive)
RXF 393
  GI50: 55.2 µM (inactive)
SF-268
  GI50: 18 µM (inactive)
SF-539
  GI50: 85.3 µM (inactive)
SK-MEL-28
  GI50: 46.7 µM (inactive)
SK-MEL-2
  GI50: 30.5 µM (inactive)
SK-MEL-5
  GI50: 29.5 µM (inactive)
SK-OV-3
  GI50: 52.7 µM (inactive)
SN12C
  GI50: 17.7 µM (inactive)
SNB-19
  GI50: 35.6 µM (inactive)
SNB-75
  GI50: 45.9 µM (inactive)
SW-620
  GI50: 36.6 µM (inactive)
T47D
  GI50: 48.8 µM (inactive)
TK-10
  GI50: 50.4 µM (inactive)
U-251
  GI50: 29.9 µM (inactive)
UACC-257
  GI50: 40.4 µM (inactive)
UACC-62
  GI50: 30.5 µM (inactive)
UO-31
  GI50: 19.2 µM (inactive)
